Measured values reported in ChEMBL document CHEMBL4680108, “Ancistrolikokine E, a 5,8'-Coupled Naphthylisoquinoline Alkaloid, Eliminates the Tolerance of Cancer Cells to Nutrition Starvation by Inhibition of the Akt/mTOR/Autophagy Signaling Pathway” (2018).

Legend:
PANC-1 [1] = assay: Inhibition of autophagy in human PANC-1 cells cultured in nutrient-deprived medium assessed as inhibition of LC3-2 expression at […] after 6 hrs by Western blot analysis relative to control; type: functional
PANC-1 [2] = assay: Inhibition of autophagy in human PANC-1 cells cultured in nutrient-deprived medium assessed as accumulation of LC3-2 expression at 25 uM after 6 hrs by Western blot analysis relative to control; type: functional

Row | SMILES | fold change (FC) (PANC-1 [1]) | fold change (FC) (PANC-1 [2])
1 | Cn1cnc(N)c2ncnc1-2 [3-METHYLADENINE] | 2 | 
2 | CCN(CC)CCCC(C)Nc1ccnc2cc(Cl)ccc12 (configuration not stated) [CHLOROQUINE] |  | 2
